The values below come from patent US5126258A (priority 1988, dated 1992).

The Km is the substrate concentration at which the rate is half of its maximum. One may read the kcat as the number of substrate molecules converted per active site and unit of time at saturation. What is called Vmax is the rate approached at saturating substrate.

The nature of data set [1]: Spontaneous (uncatalyzed, background) hydrolysis. In kind it is physicochemical. As to conditions: pH 8.0, 50 mM phosphate; time (h): 17 2; 18 24; 20 0.33; 5 0.33; 22 3.5. The procedure: The practical range of pH for the assay is limited by the rapid spontaneous rate of hydrolysis of an ester Compound 5 above pH 8.0. Initially, the ester was used at a concentration that was about four-fold greater than that of the protein, and the mixture was incubated at pH 7.2 for 10 minutes. Any change in fluorescence above background was noted.
The lack of spectroscopic distinction between such esters and their hydrolysis products recommended a chromatographic analysis of the process. Referring to FIG. 3, a mixture of Compound 7 (5 uM) and the monoclonal antibody from hybridoma P3 6D4 (0.1 uM) in phosphate buffer (50 mM, pH 8.0) was analyzed over time by high performance liquid chromatography (HPLC). The accelerated hydrolysis of the ester was apparent from the decrease of its peak and the concurrent increase in two new peaks that correspond with the expected products. Under these conditions, the ester is completely consumed in 60-80 minutes during which time the background rate accounts for about 12 to 16 percent hydrolysis. The chromatographic profile is the same as that produced by treatment with hog liver esterase.
^c The rate constants were determined spectrophotometrically (at 245
nm) by measuring initial rates at five concentrations of ester.
(§1) ^1 Preliminary initial hydrolyses shown as the percentage of admixed
(§2) reactant ligand consumed for catalyzed and spontaneous hydrolyses. "--" =
(§3) No hydrolysis observed. "NT" = Not tried. All reactions were carried out
(§4) at pH 8.0 in a 50 mM phosphate buffer unless otherwise noted. Hydrolytic
(§5) percentages were determined by HPLC using a Hitachi model 655A12 liquid
(§6) chromatograph with a C18 Vydac 201TP54 column, except as noted below.
(§7) Mixtures of acetonitrile a nd water containing 0.1 percent trichloroaceti
(§8) acid [28:72-50:50 (v/v)] were used as elutant. Hydrolyses of Compounds 5
(§9) and 20 were assayed using fluorescence data.
(§10) ^5 Spontaneous hydrolytic percentages for the time period indicated.
(§11) Reaction kinetics were studied using three reactant ligands as substrates for monoclonal receptors 37G2 and 22F5. Data from initial rates were consistent with Michaelis-Menten reaction mechanism for a usual enzyme-substrate system. Initial rates were followed using at 271 nm using a U.V.-visible spectorphotometer for Compound 17, and a fluorescence spectrometer for Compounds 5 and 20, using an excitation wavelength of 355 nm and an emission wavelength of 455 nm for both compounds.

The subject of the next data set is 21G2. The data set can be described thus: Hydrolysis of reactant ligands by receptor 21G2. As to conditions: pH 8.0; receptor/ligand uM, time h: 17 1/10, 2; 18 2/10, 24; 20 2/10, 0.33; 5 1/5, 0.33; 22 5/10, 3.5; preliminary. In kind it is biochemical, mouse. The procedure:
as §1, §2, §3, §4, §5, §6, §7, §8, §9
(§12) ^2 Concentrations of receptor molecules (Rec.) and reactant ligands
(§13) (Lig.) in micromolar units, presuming a molecular weight of 150,000
(§14) daltons for each receptor molecule.
(§15) ^3 Reactant ligand (Lig.) used as substrate.
(§16) ^4 Time in hours that the reaction was permitted to take place.
as §10
(§17) ^6 Reaction carried out at pH 7.2 in a 50 mM phosphate buffer.

The next data set deals with 7E5. The data set can be described thus: Hydrolysis of reactant ligands by receptor 7E5. Particulars: pH 8.0; receptor/ligand uM, time h: 17 1/10, 2; 18 2/10, 24; 20 2/10, 0.33; 5 1/5, 0.33; 22 5/10, 3.5; preliminary. In kind it is biochemical, mouse. The method, then:
as §1, §2, §3, §4, §5, §6, §7, §8, §9, §12, §13, §14, §15, §16, §10, §17

Another data set has as its system 37G2. The data set can be described thus: Hydrolysis of reactant ligands by receptor 37G2. It counts as biochemical, mouse. As to conditions: pH 8.0; receptor/ligand uM, time h: 17 1/10, 2; 18 2/10, 24; 20 2/10, 0.33; 5 1/5, 0.33; 22 5/10, 3.5; preliminary. The method, then:
as §1, §2, §3, §4, §5, §6, §7, §8, §9, §12, §13, §14, §15, §16, §10, §17

The test system of another data set is 13E10. The data set can be described thus: Hydrolysis of reactant ligands by receptor 13E10. In kind it is biochemical, mouse. As to conditions: pH 8.0; receptor/ligand uM, time h: 17 1/10, 2; 18 2/10, 24; 20 2/10, 0.33; 5 1/5, 0.33; 22 5/10, 3.5; preliminary. The method, then:
as §1, §2, §3, §4, §5, §6, §7, §8, §9, §12, §13, §14, §15, §16, §10, §17

In the next data set the test system is 1209. The data set can be described thus: Hydrolysis of reactant ligands by receptor 12C9 (column head prints 1209). In kind it is biochemical, mouse. Particulars: pH 8.0; receptor/ligand uM, time h: 17 1/10, 2; 18 2/10, 24; 20 2/10, 0.33; 5 1/5, 0.33; 22 5/10, 3.5; preliminary. The procedure:
as §1, §2, §3, §4, §5, §6, §7, §8, §9, §12, §13, §14, §15, §16, §10, §17

The next data set relates to 44A2. The data set can be described thus: Hydrolysis of reactant ligands by receptor 44A2. It counts as biochemical, mouse. As to conditions: pH 8.0; receptor/ligand uM, time h: 17 1/10, 2; 18 2/10, 24; 20 2/10, 0.33; 5 1/5, 0.33; 22 5/10, 3.5; preliminary. The method, then: as §1, §2, §3, §4, §5, §6, §7, §8, §9, §12, §13, §14, §15, §16, §10, §17
Another data set relates to 17G8. The data set can be described thus: Hydrolysis of reactant ligands by receptor 17G8. It counts as biochemical, mouse. As to conditions: pH 8.0; receptor/ligand uM, time h: 18 2/10, 24; 20 2/10, 0.33; 5 1/5, 0.33; 22 5/10, 3.5; preliminary. The method, then:
as §1, §2, §3, §4, §5, §6, §7, §8, §9, §12, §13, §14, §15, §16, §10, §17

A further data set concerns 22F5. The data set can be described thus: Hydrolysis of reactant ligands by receptor 22F5. In kind it is biochemical, mouse. As to conditions: pH 8.0; receptor/ligand uM, time h: 17 1/10, 2; 18 2/10, 24; 20 2/10, 0.33; 5 1/5, 0.33; 22 5/10, 3.5; preliminary. The procedure:
as §1, §2, §3, §4, §5, §6, §7, §8, §9, §12, §13, §14, §15, §16, §10, §17

Data set [2] deals with eight monoclonal receptors 21G2, 7E5, 37G2, 13E10, 12C9, 44A2, 17G8 and 22F5. The data set can be described thus: Catalyzed hydrolysis of reactant ligands by the eight QPN1 monoclonal receptors, summary. It counts as biochemical, mouse. As to conditions: pH 8.0. The procedure: Mice were hyperimmunized with the Compound 13-KLH conjugate over a three to four week time period. Sera were assayed in an ELISA using a Compound 13-BSA conjugate bound to microtiter plate wells as the solid-phase antigen. Cloned hybridomas were also screened using that ELISA assay.
Each of those catalyses could be inhibited by an appropriate analog-ligand. Thus, a relatively high percentage of induced monoclonal receptors was capable of catalyzing an esterolytic reaction. The reason for this relatively high percentage of useful receptors being induced is unknown, but could be due to the presence of phosphonamidate group nitrogen atom, as compared to a phosphonate oxygen atom, or to the quinoline nucleus of the analog-ligand. Those eight catalytic monoclonal receptors and the hybridomas that secrete them are identified by the laboratory designations "QPN1 7E5", "QPN1 12C9", "QPN1 13E10", "QPN1 17G8", "QPN1 21G2", "QPN1 22F5", "QPN1 37G2" and QPN1 44A2. The prefix "QPNI" is sometimes omitted herein when discussing these hybridomas and receptors.
Amide cleavage for Compounds 14 and 15 was assayed by analyzing for the production of free aminoquinaldine or aminonaphthalene by measuring the increase in the azo dye that results from derivatizing the free aminoquinaldine or aminonapthalene with a diazotization reagent.
Catalysis reactions were conducted by preparing a reaction admixture of 100 microliters (ul) total volume containing 5 micromolar (uM) monoclonal antibody, 50-75 uM amide reactant ligand substrate and a buffer described hereinafter. The buffer included in the above admixture varied depending upon the pH utilized as follows: pH 5, 10 […] sodium acetate, 10 mM sodium chloride; pH 7.2, 10 mM sodium phosphate, 0.15 molar (M) sodium chloride; pH 8.0; 50 mM sodium phosphate. The amide-containing substrates screened in this assay were added to the above admixture in 1 ul of a 100-fold concentrated stock solution of dimethyl formamide (DMF). Monoclonal antibody was added to the above admixture from a concentrated stock solution. The resulting admixture was placed into the well of a 96 well flat bottom microtiter plate (Costar, Cambridge, Mass.) and maintained in a moist vapor environment chamber at 23 degrees C. The production of aminoquinaldine or aminonaphthalene was then assayed as described below after 2,3,5, or 6 days.
The aminoquinaldine or aminonapthalene product produced by the catalyzed reaction was measured by first admixing 20 ul of 5M HCl, 80 ul acetone and 10 ul 0.5% (w/v) sodium nitrite to the reaction admixture to form a second admixture and maintaining that second admixture for 3 minutes at room temperature. Thereafter, 10 ul 2.5% (w/v) ammonium sulfamate was added to form a third admixture that was maintained for 2 minutes at room temperature. A still further 10 ul of 0.5% (w/v) N-(1-napthyl)ethylenediamine dihydrochloride was added to form a fourth admixture that was then maintained for 15 minutes at room temperature. Thereafter the resulting azo dye present in the fourth admixture was measured by absorbance spectroscopy at 540 nanometers (nm) for aminoquinaldine using a Model EL 309 Automated Microplate Reader (Bio-Tek Instruments, Winooski, Vt.).

Another data set has as its system Monoclonal Receptor 22F5. The data set can be described thus: Kinetics of hydrolysis by receptor 22F5. It counts as biochemical, mouse.
Description: as §11
Lineweaver-Burke plots for the catalyzed hydrolysis of Compounds 17, 5 and 20 obtained in the presence and absence of Compound 12i as inhibitor were prepared as discussed for FIG. 4. In particular, Compound 17 was present at concentrations of 1-16 uM with inhibitor concentrations of 100 and 300 nanomolar (nM). Compound 5 was present at concentrations of 1-10 uM with inhibitor concentrations of 100 and 200 nM. Compound 20 was present at concentrations of 2-20 uM with inhibitor concentrations of 25 and 100 nM.
*Fluorescence assays using Compounds 20 and 5 were carried out in a
PerkinElmer fluorescence spectrophotometer (moded LS5; Oakbrook, IL) usin
200 nanomolar receptor (based on a molecular weight of 150,000 daltons) i
50 mM phosphate buffer at a pH value of 8.0. The reactant ligand was
dissolved in dioxane and admixed in the amounts discussed above. Two
milliliters of reaction solution were utilized as was a dioxane
concentration of 2 percent by volume. […]

As for `CC(=O)Nc1ccc(CC(=O)Oc2ccc3c(C)cc(=O)oc3c2)cc1` [Compound 20], the “Spon. (spontaneous hydrolysis)” value in data set [1] is listed as 14 percentage of reactant ligand. For the same compound, the “hydrolysis by 21G2” value with 21G2 is given as 36 percentage of reactant ligand. In addition, in the data set with 7E5, the “hydrolysis by 7E5” value was 15 percentage of reactant ligand. The “hydrolysis by 37G2” value with 37G2 was 39 percentage of reactant ligand. In addition, the “hydrolysis by 13E10” value in the data set on 13E10 is 16 percentage of reactant ligand. Besides, the “hydrolysis by 1209” value in the data set on 1209 is 16 percentage of reactant ligand. Also, in the data set on 44A2, the “hydrolysis by 44A2” value is given as 33 percentage of reactant ligand. Besides, the “hydrolysis by 17G8” value in the data set on 17G8 is reported as 20 percentage of reactant ligand. Moreover, in the data set on 22F5, the “hydrolysis by 22F5” value is 48 percentage of reactant ligand. For the same compound, the “receptors (of eight) that catalyzed hydrolysis of the compound” value in [2] is on record as “Only those same five receptors”. For the same compound, in the data set with Monoclonal Receptor 22F5 (50 mM phosphate pH 8.0, 200 nM receptor, 2% dioxane, figure = Km × 10^6), the Km came to 5 µM. In the data set with Monoclonal Receptor 22F5 (pH 8.0), the catalytic constant (kcat) is 0.023 s⁻¹. The maximal velocity (Vmax) in the data set with Monoclonal Receptor 22F5 (pH 8.0, 200 nM receptor, figure = Vmax × 10^9) worked out at 0.27 µM/min.
